According to patent US20240307374A1, “FORMULATION OF FURIN INHIBITOR FOR INHALATION” (BP ASSET V, INC., priority 2021, published 2024):
Counter-ions that a name gives are not always drawn. Marks after values point to notes of the source that are not given here.

Assays:
Assay type in all cases: physicochemical
[1] = Equilibrium solubility in pH buffers (pH 4.0-6.0) with pH adjustment; settings: for S: solubility: with pH adjustment; for pH before adjustment (in brackets): 24 hours
Experimental: In details, ˜5 mg of solids were suspended into 1 mL of each medium with dosing conc. at ˜5 mg/mL. Additional solids were added into the sample to generate suspension if clear solution was obtained. The suspension was equilibrated via stirring (1000 rpm) for 24 hours. The pH of the suspension was adjusted when the final pH shifted above 0.3, and the samples were stirred for another 1.5 hours after pH adjustment. The suspension was centrifuged to obtain precipitate and supernatants. Solubility, purity and pH were tested for the supernatants after filtration, and isolated precipitate was tested by XRPD.
(§1) • 1. pH=3.0 buffer (50 mM HCl+KCl): Weigh 365.39 mg KCl into a 100 mL volumetric flask (VF), and add 0.1 mL 1M HCl into the VF, and dilute to volume with water. • 2. pH=4.0 buffer (50 mM citrate): Weigh 56.74 mg citric acid and 60.18 mg trisodium citrate into a 10 mL volumetric flask, and dilute to volume with water. • 3. pH=5.0 buffer (50 mM citrate) Weigh 11.12 mg citric acid and 95.38 mg trisodium citrate into a 10 mL volumetric flask, and dilute to volume with water. • 4. pH=6.0 buffer (50 mM citrate) Weigh 11.04 mg citric acid and 130.2 mg trisodium citrate into a 10 mL volumetric flask, and dilute to volume with water. • 5. pH=6.0 buffer (50 mM phosphate) Weigh 8.7 mg Na2HPO4 and 52.6 mg NaH2PO4 into a 10 mL volumetric flask, and dilute to volume with water. • 6. pH=7.0 buffer (50 mM phosphate) Weigh 23.47 mg Na2HPO4 and 43.34 mg NaH2PO4into a 10 mL volumetric flask, and dilute to volume with water. • 7. pH=8.0 buffer (50 mM phosphate) Weigh 31.64 mg Na2HPO4 and 67.18 mg NaH2PO4into a 10 mL volumetric flask, and dilute to volume with water.

[2] = Equilibrium solubility in pH buffers (3.0-8.0), 20% captisol and water; settings: 24 hrs; for S: solubility: RT
Experimental: Additional solids were added into the sample to generate suspension if clear solution obtained. The suspension was equilibrated via stirring (1000 rpm). The suspension was centrifuged to obtain precipitate and supernatants.
Solubility and pH were tested for the supernatants after filtration, and isolated precipitate was tested by XRPD.
as §1

Grinding stability = settings: ~30 mg ground manually in a mortar for about 5 minutes
[3] = DVS (dynamic vapor sorption) moisture uptake; settings: for Moisture Uptake (DVS): 25° C.; for form change after DVS test (XRPD): XRPD before and after DVS
Experimental: (FIG. 5). Sample weight decreased rapidly when humidity decreased from 10% to 0%, which might be caused by loss of crystalline water.
DVS was measured via a SMS (Surface Measurement Systems) DVS Intrinsic.

[4] = pH = 4.0 buffer (50 mM citrate)
[5] = pH = 4.0 buffer (50 mM citrate), RT
[6] = pH = 5.0 buffer (50 mM citrate)
[7] = pH = 5.0 buffer (50 mM citrate), RT
[8] = pH = 6.0 buffer (50 mM citrate)
[9] = pH = 6.0 buffer (50 mM citrate), RT
[10] = pH = 6.0 buffer (50 mM phosphate)
[11] = pH = 6.0 buffer (50 mM phosphate), RT
[12] = pH = 3.0 buffer (50 mM HCl + KCl)
[13] = pH = 7.0 buffer (50 mM phosphate)
[14] = pH = 8.0 buffer (50 mM phosphate)

Compound: CC(=O)NCC1CCN(Cc2cc(Oc3ccc(N4CCN(CCC(=O)O)CC4)nc3)nc(-c3cc(Cl)cc(Cl)c3)c2)CC1 [Fumarate Type A]
- Area % (purity of supernatant) [1, 4]: 99.3 Area %
- FC: form change (XRPD of precipitate) [1, 4]: 4 (3/4/6/7/8: new Form 3/4/6/7/8)
- pH (final, after adjustment where adjusted) [1, 4]: 4.0
- S: solubility [1, 5]: 3040 µg/mL
- Area % (purity of supernatant) [1, 6]: 99.4 Area %
- FC: form change (XRPD of precipitate) [1, 6]: 4 (3/4/6/7/8: new Form 3/4/6/7/8)
- pH (final, after adjustment where adjusted) [1, 6]: 4.9*
- pH before adjustment (in brackets) [1, 6]: (4.1)
- S: solubility [1, 7]: 19300 µg/mL
- Area % (purity of supernatant) [1, 8]: 98.6 Area %
- FC: form change (XRPD of precipitate) [1, 8]: 7 (3/4/6/7/8: new Form 3/4/6/7/8)
- pH (final, after adjustment where adjusted) [1, 8]: 6.1*
- pH before adjustment (in brackets) [1, 8]: (5.0)
- S: solubility [1, 9]: 240 µg/mL
- Area % (purity of supernatant) [1, 10]: 95.6 Area %
- pH (final, after adjustment where adjusted) [1, 10]: 6.2*
- pH before adjustment (in brackets) [1, 10]: (4.6)
- S: solubility [1, 11]: 90 µg/mL
- pH of supernatant (final pH) ([2]; 20% Captisol (pH = 5.0, w/v)): 4.3
- S: solubility ([2]; 20% Captisol (pH = 5.0, w/v)): 29.6 mg/mL
- FC: form change (XRPD of precipitate) ([2]; H2O): 4 (1/2/3/4/5: new Form 1/2/3/4/5)
- pH of supernatant (final pH) ([2]; H2O): 3.8
- S: solubility ([2]; H2O): 1.85 mg/mL
- FC: form change (XRPD of precipitate) [2, 12]: 5 (1/2/3/4/5: new Form 1/2/3/4/5)
- pH of supernatant (final pH) [2, 12]: 3.5
- S: solubility [2, 12]: 0.65 mg/mL
- FC: form change (XRPD of precipitate) [2, 4]: 4 (1/2/3/4/5: new Form 1/2/3/4/5)
- pH of supernatant (final pH) [2, 4]: 4.1
- S: solubility [2, 4]: 3.45* mg/mL
- FC: form change (XRPD of precipitate) [2, 6]: 4 (1/2/3/4/5: new Form 1/2/3/4/5)
- pH of supernatant (final pH) [2, 6]: 4.8
- S: solubility [2, 6]: 7.79 mg/mL
- FC: form change (XRPD of precipitate) [2, 8]: 4 (1/2/3/4/5: new Form 1/2/3/4/5)
- pH of supernatant (final pH) [2, 8]: 5.1
- S: solubility [2, 8]: 20.6 mg/mL
- pH of supernatant (final pH) [2, 13]: 6.6
- S: solubility [2, 13]: 0.05 mg/mL
- pH of supernatant (final pH) [2, 14]: 7.2
- S: solubility [2, 14]: 0.02 mg/mL
- crystallinity after grinding (XRPD) (Grinding stability): decreased after grinding
- Moisture Uptake (DVS) ([3]; from 30% RH to 80% RH): 2.5 (from 30% RH to 80% RH)
- form change after DVS test (XRPD) [3]: crystallinity of fumarate Type A decreased

Compound: CC(=O)NCC1CCN(Cc2cc(Oc3ccc(N4CCN(CCC(=O)O)CC4)nc3)nc(-c3cc(Cl)cc(Cl)c3)c2)CC1 [HCl salt Type F]
- solubility at 24 h ([1]; 50 mM pH 4.0-6.0 buffers, pH 4, aqueous buffer, thermodynamic from solid, 50 mM pH 4.0-6.0 buffers with pH adjustment, RT, read-out: solubility in pH buffers (overall bound)): < 6800 µg/mL
- Area % (purity of supernatant) [1, 4]: 99.0 Area %
- FC: form change (XRPD of precipitate) [1, 4]: Low (Low; low crystallinity)
- pH (final, after adjustment where adjusted) [1, 4]: 4.0
- S: solubility [1, 5]: 1520 µg/mL
- Area % (purity of supernatant) [1, 6]: 99.6 Area %
- FC: form change (XRPD of precipitate) [1, 6]: Low (Low; low crystallinity)
- pH (final, after adjustment where adjusted) [1, 6]: 4.9
- S: solubility [1, 7]: 2320 µg/mL
- Area % (purity of supernatant) [1, 8]: 99.0 Area %
- FC: form change (XRPD of precipitate) [1, 8]: 8 (3/4/6/7/8: new Form 3/4/6/7/8)
- pH (final, after adjustment where adjusted) [1, 8]: 5.7
- S: solubility [1, 9]: 1150 µg/mL
- Area % (purity of supernatant) [1, 10]: 98.9 Area %
- FC: form change (XRPD of precipitate) [1, 10]: Low (Low; low crystallinity)
- pH (final, after adjustment where adjusted) [1, 10]: 5.9*
- pH before adjustment (in brackets) [1, 10]: (3.9)
- S: solubility [1, 11]: 430 µg/mL
- solubility at 24 h ([2]; 50 mM pH buffers, pH 3.0-8.0, 21 °C, pH 3, aqueous buffer, thermodynamic from solid, 50 mM pH buffers pH 3.0-8.0, RT, read-out: solubility in pH buffers (overall bound)): < 8000 µg/mL
- pH of supernatant (final pH) ([2]; 20% Captisol (pH = 5.0, w/v)): 3.5
- S: solubility ([2]; 20% Captisol (pH = 5.0, w/v)): >48.0^1 mg/mL
- FC: form change (XRPD of precipitate) ([2]; H2O): 5 (1/2/3/4/5: new Form 1/2/3/4/5)
- pH of supernatant (final pH) ([2]; H2O): 2.4
- S: solubility ([2]; H2O): 4.24 mg/mL
- FC: form change (XRPD of precipitate) [2, 12]: 5 (1/2/3/4/5: new Form 1/2/3/4/5)
- pH of supernatant (final pH) [2, 12]: 2.7
- S: solubility [2, 12]: 2.77 mg/mL
- FC: form change (XRPD of precipitate) [2, 4]: Low (Low: low crystallinity)
- pH of supernatant (final pH) [2, 4]: 3.9
- S: solubility [2, 4]: 1.12 mg/mL
- FC: form change (XRPD of precipitate) [2, 6]: Low (Low: low crystallinity)
- pH of supernatant (final pH) [2, 6]: 5.0
- S: solubility [2, 6]: 2.64 mg/mL
- FC: form change (XRPD of precipitate) [2, 8]: A^
- pH of supernatant (final pH) [2, 8]: 5.8
- S: solubility [2, 8]: 0.62 mg/mL
- FC: form change (XRPD of precipitate) [2, 13]: A^+
- pH of supernatant (final pH) [2, 13]: 6.5
- S: solubility [2, 13]: 0.06 mg/mL
- FC: form change (XRPD of precipitate) [2, 14]: A^+
- pH of supernatant (final pH) [2, 14]: 7.2
- S: solubility [2, 14]: 0.02 mg/mL
- crystallinity after grinding (XRPD) (Grinding stability): decreased after grinding
- Moisture Uptake (DVS) ([3]; from 20% RH to 80% RH): 1.4 (from 20% RH to 80% RH)
- form change after DVS test (XRPD) [3]: No form change
